From publication PMC9332833 (Cancers, 2022) come the findings set out here.

For test [1], the system named is K562 cells. The test is described as follows: K562 cell cycle analysis. It counts as cell-based, human. The settings on record: 5 µM, after 24 h; lesser extent after 48 h. The method, then: BK124.1 or DMSO was added to cells and after 24 or 48 h incubation. Cells were fixed and stained with 50 µg/mL propidium iodide (Sigma-Aldrich, St. Louis, MO, USA) with 50 µg/mL DNAse-free RNase. The cell cycle was analyzed on a FACSCalibur cytometer (Becton Dickinson, Franklin Lakes, NJ, USA) using ModFit LT 3.2 software (Verity Software House, Topsham, ME, USA). […]
(§1) incubated overnight at 37 °C and analyzed using an iMark Microp late absorbance reader (Bio-Rad, Hercules, CA, USA). Results were calculated relative to control cells treated with DMSO only.
(§2) […] CD34+ cells were plated at a concentration of 2.5 × 10^5 cells/mL in a 24-well plate. […] A f t e r a further 24 hours, cells were harvested and stained according to the manufacturer's protocol using the Annexin V-FITC kit for the detection of apoptosis (BD, Franklin Lakes, NJ, USA). Stained cells were immediately analyzed on a BD FACSCalibur using CellQuest softwa re (BD, Franklin Lakes, NJ, USA).
(§3) Cells were seeded at a concentration of 1-2 × 10^5 cells/mL in a 6-well plate. After 24 hours of pre-incubation, BK124.1 in DMSO was added to the cells (vDMSO/vmedium), and incubated for 24 or 48 hours.
(§4) After incubation, cells were washed twice with ice-cold PBS (Mg2+ and Ca2+-free), resuspended in ice-cold 70% ethanol, and placed at -20 °C for 24 hours. […]
(§5) Flow cytometry analysis of CD243 (P-glycoprotein) […]

For test [2], the system named is K562 cells. The test is described as follows: Annexin V-FITC/PI apoptosis measurement, K562. The format is cell-based, human. The settings on record: 5 µM, 24 h. How it is done: Cells were seeded in 6-well plates (K562 or K562-MDR1) or in 24-well plates (CD34^+ cells). After 24 h, BK124.1 or DMSO was added. After a further 24 h, cells were stained using the Annexin V-FITC kit for the detection of apoptosis (BD, Franklin Lakes, NJ, USA) and immediately analyzed on a BD FACSCalibur using CellQuest software (BD, Franklin Lakes, NJ, USA). […]
as §1, §2, §3, §4, §5

A further test relates to K562-MDR1 cells. The experiment in a line: MTT viability test, K562-MDR1. The format is cell-based, human. The settings on record: Homo sapiens; MTT, 48 h. The source says:
The K562-MDR1 cell line was developed using increasing concentrations of the commonly used antimitotic drug vincristine on a polyclonal K562 population, as described earlier. […] The DMSO concentration in the culture was 0.1%. The vincristine dose was doubled every 2–3 weeks (at least twice for each experiment) after the cells reached confluence. Cell’s viability was above 90%, as confirmed by Muse Cell Analyzer (Merck Millipore, Burlington, MA, USA). The final concentration of vincristine reached was 0.1 μM. The increase in the K562-MDR1 population was confirmed by flow cytometry and PCR.
Cells were seeded in 96-well plates; after 24 h, medium with the appropriate drug concentration was added to each well. After 48 h, Tetrazolium Bromide (Sigma-Aldrich, St. Louis, MO, USA) was added to each well for 2–3 h. After that, cells were lysed and formazan crystals were dissolved. Absorbance was read using an iMark Microplate absorbance reader (Bio-Rad, Hercules, CA, USA). Results were calculated relative to cells treated with DMSO only. […]
Cells were seeded in 96-well plates at 7 × 10^3 cells/well in 50 µL of complete medium (for K562 or K562-MDR1) or at 50 × 10^3 cells/well in 50 µL of complete medium (CD34+ cells). After 24 hours, 50 µL of medium with the appropriate drug concentration was added to each well. The final DMSO concentration per well was 1% for K562 and K562-MDR1 and 0.1% for CD34+ cells. After 48 hours, 20 µL of Tetrazolium Bromide (Sigma-Aldrich, St. Louis, MO, USA) at a concentration of 5 mg/mL was added to each well. Cells were incubated for 2-3 hours in a cell culture incubator, and then 10% SDS with 1% HCl was added to each well to lyse the cells and dissolve the formazan crystals. Plates were […]

The test system of test [3] is K562 cells. The test is described as follows: K562 xenogeneic mouse model, tumor growth. It counts as in vivo, NSG mice. The settings on record: for Tumor weights: mean ± SD, N=4, tumor growth control 9.2±2.1. The method, then:
Statistical analysis was performed using GraphPad Prism version 9.1.0. All in vitro experiments were performed in at least triplicate biological replicates and statistical results are expressed as mean ± standard deviation (SD). Statistical data of animal experiments are expressed as mean ± standard error of the mean (SEM). For experiments involving patients, the normality of the distribution was checked using the Shapiro–Wilk test and the statistical analysis was performed using one-way ANOVA with Dunnett’s post-test * p < 0.05, ** […], *** 0.001 > p > 0.0001, **** p < 0.0001.
Table S3. […] Control and
IP, intraperitoneal administration; O, orally

In the case of `CCC12C(=O)C(CC)(C(c3ccccc3)=C1c1ccccc1)C1C(=O)N(CC(O)CNC(C)C)C(=O)C12` (stereo not shown) [BK124.1, 4-[2-hydroxy-3-(propan-2-ylamino)propyl]-1,7-diethyl-8,9-diphenyl-4-azatricyclo [5.2.1.02,6]dec-8-ene-3,5,10-trione], the Cell cycle effect entry in the test on K562 cells [1] is recorded as “profound G2/M arrest”. Besides, the “Apoptosis” value in the test on K562 cells [2] is on record as 61.2%. In addition, inhibition in the test on K562-MDR1 cells was half-maximal at 2160 nM (IC50). Also, the figures for the Tumor weights in the test with K562 cells [3] (20 mg/kg IP daily 14 days) and in the test on K562 cells [3] (30 mg/kg IP daily 14 days) were 1.6 ± 1.6 g and 1.9 ± 1.8 g, respectively. Further, in the test with K562 cells [3] (BK124.1 20 or 30 mg/kg IP, imatinib 100 mg/kg orally, hydroxyurea 500 mg/kg IP, 1 x daily), the “Tumor growth versus control groups” value is “effectively inhibited”. Further, the Tumor volume entry in the test on K562 cells [3] (prolonged treatment (days 4-17), IP 20 or 30 mg/kg, comparable with hydroxyurea or imatinib) is “significant reduction in tumor volume”.
